Results on one compound are retold here after patent US11648254B2 (Kumquat Biosciences Inc., priority 2021, dated 2023).

The structures appear in SMILES notation. Like-named read-outs stand apart in the source and are kept apart here.

Series [1] concerns ERK phosphorylation (p-ERK 1/2 Thr202/Tyr204) in MIA PaCa-2 or NCI-H1975 cells. As to the kind of experiment: ERK phosphorylation assay (AlphaLISA p-ERK 1/2). Conditions: MIA PaCa-2 cells or EGFR mutant NCI-H1975 cells; read-out: IC50 for the inhibition of ERK phosphorylation. Format: cell-based. The method, then: MIA PaCa-2 cells (ATCC CRL-1420) expressing K-Ras G12C is grown in DMEM/Ham's F12 medium supplemented with 10% fetal calf serum, glutamine and ˜2.5% horse serum. Alternatively, other cell lines with aberrant Ras signaling output can be utilized. Non-limiting exemplary cell lines include NCI-H358 and H1975. Cells are plated in 96-well plates at a concentration of 40,000 cells/well and allowed to attach for at least 8 hours. Following, diluted solutions of test inhibitor compounds are added to the cell culture. After ˜2 hours of incubation, the medium is removed and lysis buffer from AlphaLISA® SureFire® Ultra™ p-ERK 1/2 (Thr202/Tyr204) assay kit (Perkin Elmer ALSU-PERK-A10K) is added to the cells. The plate is agitated for 10 min at room temperature and 10 μL of the lysate is transferred to a 384-well Optiplate™ (Perkin Elmer) for assay. Thereafter ˜5 μL of Acceptor Mix from the p-ERK AlphaLISA assay kit is added to wells and plate is sealed with adhesive film. The samples are incubated for one hour at room temperature. Following, 5 μL of Donor Mix is added to the wells and plate is re-sealed with adhesive film, and incubated for one hour at room temperature. The plate is then read on a multimode microplate reader (e.g., SPARK©Tecan) equipped with Alpha detection module. The data can be fitted to four-parameter dose-response curve using Prism version 9 (GraphPad) to calculate an IC50 for the inhibition of ERK phosphorylation. […] 355, 332, 366, 216, 264, 356, 266, in an ERK phosphorylation assay utilizing either MIA PaCa-2 cells (ATCC CRL-1420) or EGFR mutant cell line (NCI-H1975 (ATCC CRL-5908)).
On the technique in general: Bead proximity is the source of the signal in Alpha formats.

For series [2], the system named is NCI-H1975 cells (EGFR T790M L858R). The series is described as follows: EGFR-SOS cellular inhibition assay (CellTiter-Glo, 3D). It is filed as cell-based. Conditions: Homo sapiens. (In general: Cellular ATP, detected with luciferase, serves as a proxy for viable cell number.)
Series [3] concerns MIA PaCa-2 cells (K-Ras G12C). As to the kind of experiment: Ras-SOS cellular growth inhibition assay (CellTiter-Glo, 3D). The following applies: Homo sapiens. It is filed as cell-based. The gist of the method: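 Growth read by CellTiter-Glo luminescence about 5 days after dosing with 3-fold dilutions (9 points), added one day post-seeding. Cells: MIA PaCa-2, 3D culture on ultra-low-attachment surface, medium DMEM/Ham's F12 plus 10% FCS and 2.5% horse serum; IC50 by four-parameter fit.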

Series [4] deals with SOS1 (Homo sapiens (Human), UniProt Q07889). The series is described as follows: Ras-SOS interaction assay (HTRF). Format: biochemical. For orientation: In TR-FRET formats the signal depends on donor and acceptor labels being close together.
Series [5] in a line: Metabolic (microsomal) stability assay. It is filed as in vitro ADME. Conditions: mouse liver microsomes, T1/2; read-out: DMPK-invitro-metabolic Stability (Mouse T1/2). The text has this:
Example 12: Metabolic (Microsomal) Stability Assay

A short description of series [6]: In vitro plasma protein binding (PPB). Conditions: percentage of free/unbound compound. Format: in vitro ADME.

SOS1, sequence (Q07889 564-1049): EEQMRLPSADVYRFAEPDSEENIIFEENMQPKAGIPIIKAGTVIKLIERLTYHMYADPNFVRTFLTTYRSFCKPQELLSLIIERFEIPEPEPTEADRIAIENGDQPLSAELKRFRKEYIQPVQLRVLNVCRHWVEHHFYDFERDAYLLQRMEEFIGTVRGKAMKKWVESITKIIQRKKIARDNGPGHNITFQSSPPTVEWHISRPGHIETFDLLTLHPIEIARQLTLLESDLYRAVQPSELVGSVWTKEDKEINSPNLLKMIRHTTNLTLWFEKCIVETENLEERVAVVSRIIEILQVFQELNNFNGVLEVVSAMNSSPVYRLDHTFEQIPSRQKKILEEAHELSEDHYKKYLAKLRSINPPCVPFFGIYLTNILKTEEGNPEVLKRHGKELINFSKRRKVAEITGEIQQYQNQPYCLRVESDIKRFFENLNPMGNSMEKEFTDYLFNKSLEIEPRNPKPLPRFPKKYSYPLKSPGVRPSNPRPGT

As usually defined, the IC50 is the concentration that gives 50% inhibition. As for `COc1nc2nc(C)nc(N[C@H](C)c3cccc(C(F)(F)[C@@H](C)O)c3)c2cc1C1(C#N)CC1` [Compound 366, 1-(4-(((R)-1-(3-((R)-1,1-difluoro-2-hydroxypropyl)phenyl)ethyl)amino)-7-methoxy-2-methylpyrido[2,3-d]pyrimidin-6-yl)cyclopropane-1-carbonitrile], the IC50 in series [1] is less than 1000 nM; in series [2] (120 h, NCI-H1975, 3D proliferation, about 5 days, read-out: Bio-Cell-Prolif-3D (H1975 IC50)), not above 1000 nM; in series [2] (NCI-H1975, EGFR T790M L858R, read-out: IC50 in inhibiting growth of NCI-H1975 cell line), less than 500 nM; in series [3] (MIA PaCa-2, 120 h, MIA PaCa-2, 3D proliferation, about 5 days, read-out: Bio-Cell-Prolif-3D (MiaPaca2 IC50)), not above 1000 nM; in series [3] (MIA PaCa-2, MIA PaCa-2, read-out: IC50 in inhibiting MIA PaCa-2 cell growth) it was less than 500 nM; in series [4] (K-RasG13D utilized, read-out: IC50 inhibition of SOS), less than 100 nM. The IC50 in series [4] (K-RasG13D, read-out: IC50 value against SOS1) is less than 50 nM. Besides, the half-life in series [5] is 25.7 min. Moreover, the “DMPK-invitro-PPB (Mouse Unbound) [%]” value in series [6] is reported as 1.32%.
